The subject of series [1] is DENV-3 strain H87 prototype. As to the kind of experiment: Antiviral activity against DENV-3 in Vero-B cells (viral RNA load by RT-qPCR). In kind it is cell-based, Dengue virus. The conditions noted are these: Dengue virus, DENV3, Vero B.
A further series in a line: in vitro. The note with it: African green monkey; for CC50 at 4 days: uninfected quiescent Vero-B cells.
Series [2] has as its system DENV-1 Djibouti strain D1/H/IMTSSA/98/606. As to the kind of experiment: Antiviral activity against DENV-1 in Vero-B cells (viral RNA load by RT-qPCR). In kind it is cell-based, Dengue virus. The note with it: Dengue virus, DENV1, Vero B. Background: Quantitative PCR measures a nucleic acid by following its amplification.
A further series concerns DENV-2 NGC. As to the kind of experiment: Antiviral activity against DENV-2 NGC in Vero-B cells (viral RNA load by RT-qPCR). The note with it: Dengue virus, DENV2, Vero B, DENV-2 in Vero-B cells; inhibition of viral RNA replication by 50% (Table 3). In kind it is cell-based, Dengue virus.
Series [3] concerns DENV-4 strain Dak HD 34 460. As to the kind of experiment: Antiviral activity against DENV-4 in Vero-B cells (viral RNA load by RT-qPCR). Format: cell-based, Dengue virus. The conditions noted are these: Dengue virus, DENV4, Vero B.

Bounds are passed on as bounds.

As usually defined, the EC50 is the concentration at which the effect is half-maximal. Regarding `COc1cc(NC(C(=O)c2c[nH]c3c(CCO)cccc23)c2ccccc2)cc(OC)c1` (stereo not shown) [CPD-339], the EC50 in series [1] was 0.82 µM; in series [2] it was 0.81 µM; in the series on DENV-2 NGC, 0.09 µM; in series [3] it was 2.93 µM. This compound also yielded a CC50 at 4 days in the series “in vitro” of 19 µM.
For `COc1cc(CO)cc(NC(C(=O)c2c[nH]c3ccccc23)c2ccc(F)cc2)c1` (stereo not shown) [CPD-313], the concentration for a half-maximal effect (EC50) in series [1] came out at 1.11 µM; in series [2], 0.72 µM; with DENV-2 NGC, 0.04 µM; in series [3] it was 5.84 µM. Further, the CC50 at 4 days in the series “in vitro” was found to be 58 µM.
For the compound `COc1cccc(NC(C(=O)c2c[nH]c3ccc(C)cc23)c2ccccc2)c1` (stereo not shown) [CPD-130], the concentration giving a half-maximal response (EC50) in series [1] is 1.7 µM; in series [2], 0.35 µM; in the series on DENV-2 NGC, 0.03 µM; in series [3], 7.42 µM. The same compound displayed a CC50 at 4 days in the series “in vitro” of 15 µM.
For `COc1cccc(NC(C(=O)c2c[nH]c3ccc(F)cc23)c2ccc(OC)nc2)c1` (stereo not shown) [CPD-154], the 50% effective concentration (EC50) in series [1] was determined as 4.4 µM; in series [2], 3.92 µM; with DENV-2 NGC, 0.06 µM; in series [3] it was 9.87 µM. Also, the CC50 at 4 days in the series “in vitro” amounted to 44 µM.
For the compound `COc1cccc(NC(C(=O)N2CCc3ccccc32)c2ccccc2)c1` (stereo not shown) [CPD-056], the EC50 came out at 69.2 µM in series [1], 10.6 µM in series [2], 0.45 µM with DENV-2 NGC and 5.92 µM in series [3]. Besides, the CC50 at 4 days in the series “in vitro” was over 139 µM.
Regarding `COc1cc(CO)cc(NC(C(=O)c2c[nH]c3cc(F)ccc23)c2ccccc2)c1` (stereo not shown) [CPD-285], the EC50 in series [1] was found to be 2.2 µM; in series [2] it was 0.84 µM; with DENV-2 NGC, 0.04 µM; in series [3] it was 2.31 µM. Also, in “in vitro”, the CC50 at 4 days turned out to be 50 µM.
Take `COc1cccc(NC(C(=O)c2c[nH]c3cc(Cl)ccc23)c2cn3ccccc3n2)c1` (stereo not shown) [CPD-150]: the concentration giving a half-maximal response (EC50) in series [1] came out at 1.07 µM; in series [2], 1.28 µM; in the series with DENV-2 NGC, 0.03 µM; in series [3] it was 8.87 µM. Besides, the CC50 at 4 days in the series “in vitro” amounted to 105 µM.
For `COc1cc(CO)cc(NC(C(=O)c2c[nH]c3c(C)cccc23)c2ccccc2)c1` (stereo not shown) [CPD-318], in that order: 2.32 µM, 0.22 µM, 0.06 µM, 10.8 µM and 54 µM.
`COc1cccc(NC(C(=O)c2c[nH]c3ccccc23)c2cccc3ccnn23)c1` (stereo not shown) [CPD-043]: the EC50 in series [1] was found to be 5.88 µM; in series [2], 3.38 µM; in the series on DENV-2 NGC, 0.29 µM; in series [3] it was 4.76 µM. In addition, the CC50 at 4 days in the series “in vitro” was over 126 µM.
For `COc1cccc(NC(C(=O)c2c[nH]c3ccc(F)cc23)c2cccnc2)c1` (stereo not shown) [CPD-151], the concentration for a half-maximal effect (EC50) in series [1] is 2.1 µM; in series [2], 0.53 µM; in the series on DENV-2 NGC, 0.09 µM; in series [3], 4.87 µM. Further, the CC50 at 4 days in “in vitro” is over 133 µM.
The matching figures for `COc1cc(CO)cc(NC(C(=O)c2c[nH]c3ccccc23)c2cc3ccccn3n2)c1` (stereo not shown) [CPD-289]: 0.91 µM, 0.8 µM, 0.06 µM, 10.2 µM and 68 µM.
As for `COc1cccc(NC(C(=O)c2cn(C)c3ccccc23)c2ccccc2)c1` (stereo not shown) [CPD-049], the EC50 worked out at 10.5 µM in series [1], 2.21 µM in series [2], 0.08 µM with DENV-2 NGC and 2.27 µM in series [3]. The compound also came in with a CC50 at 4 days in the series “in vitro” of over 134 µM.
With `COc1cc(NC(C(=O)c2cn(CCCO)c3ccc(F)cc23)c2ccccc2)cc(OC)c1` (stereo not shown) [CPD-156], the 50% effective concentration (EC50) in series [1] came to 2.12 µM; in series [2] it was 0.61 µM; in the series with DENV-2 NGC it was 0.02 µM; in series [3], 3.37 µM. The CC50 in “in vitro” turned out to be 11 µM.
Take `COc1cccc(NC(C(=O)c2c[nH]c3ccccc23)c2ccc(C(F)(F)F)nc2)c1` (stereo not shown) [CPD-315]: the concentration giving a half-maximal response (EC50) came out at 1.01 µM in series [1], 0.38 µM in series [2], 0.05 µM with DENV-2 NGC and 1.97 µM in series [3]. Besides, the CC50 at 4 days in “in vitro” was 13 µM.
For `COc1cccc(NC(C(=O)c2c[nH]c3ccccc23)c2cncc(C)c2)c1` (stereo not shown) [CPD-309], the EC50 turned out to be 0.7 µM in series [1], 0.62 µM in series [2], 0.54 µM in the series on DENV-2 NGC and 2.8 µM in series [3]. Besides, in “in vitro”, the CC50 at 4 days was 74 µM.
The matching figures for `COc1cc(CO)cc(NC(C(=O)c2c[nH]c3ccccc23)c2ccc(F)nc2)c1` (stereo not shown) [CPD-333]: 0.49 µM, 0.39 µM, 0.04 µM, 5.92 µM and 90 µM.
For `COc1cccc(NC(C(=O)c2c[nH]c3ccccc23)c2cccnn2)c1` (stereo not shown) [CPD-317], the 50% effective concentration (EC50) was 12.8 µM in series [1], 4.13 µM in series [2], 0.58 µM in the series with DENV-2 NGC and 10.6 µM in series [3]. The CC50 at 4 days in the series “in vitro” was 88 µM.
As for `COc1cccc(NC(C(=O)c2c[nH]c3ccccc23)c2cnc(OC)nc2)c1` (stereo not shown) [CPD-240], the EC50 is 2.38 µM in series [1], 1.2 µM in series [2], 0.11 µM with DENV-2 NGC and 8.73 µM in series [3]. The compound further yielded a CC50 at 4 days in the series “in vitro” of 63 µM.
Take `COc1cccc(NC(C(=O)c2cn(CCO)c3ccccc23)c2ccccc2)c1` (stereo not shown) [CPD-104]: the EC50 in series [1] worked out at 24 µM; in series [2] it was 3.85 µM; in the series with DENV-2 NGC, 0.35 µM; in series [3] it was 14.9 µM. The same compound registered a CC50 in the series “in vitro” of 65 µM.
For `COc1cccc(NC(C(=O)c2nn(C)c3ccccc23)c2cc3ccccn3n2)c1` (stereo not shown) [CPD-273], the half-maximal effective concentration (EC50) amounted to 7.66 µM in series [1], 0.58 µM in series [2], 0.32 µM in the series with DENV-2 NGC and 8.41 µM in series [3]. The same compound yielded a CC50 at 4 days in the series “in vitro” of over 122 µM.
Take `COc1cc(NC(C(=O)c2c[nH]c3c(C)cccc23)c2ccccc2)cc(OCCO)c1` (stereo not shown) [CPD-331]: the concentration for a half-maximal effect (EC50) came out at 0.39 µM in series [1], 0.39 µM in series [2], 0.02 µM in the series on DENV-2 NGC and 3.28 µM in series [3]. This compound registered a CC50 at 4 days in the series “in vitro” of 14 µM.
With `COc1cc(NC(C(=O)c2c[nH]c3ccccc23)c2ccc(OC)nc2)cc(OC)c1` (stereo not shown) [CPD-335], the EC50 came out at 0.42 µM in series [1], 0.32 µM in series [2], 0.02 µM in the series with DENV-2 NGC and 2.38 µM in series [3]. The same compound had a CC50 at 4 days in “in vitro” of 18 µM.
On to `COc1cccc(NC(C(=O)c2c[nH]c3ccc(F)cc23)c2cnc(OC)cn2)c1` (stereo not shown) [CPD-295], for which the EC50 in series [1] came out at 1.38 µM; in series [2], 0.34 µM; in the series with DENV-2 NGC, 0.03 µM; in series [3], 6.29 µM. Also, the CC50 at 4 days in the series “in vitro” came out at 18 µM.
For `COc1cccc(NC(C(=O)c2nn(C)c3ccccc23)c2ccccc2)c1` (stereo not shown) [CPD-203], in that order: 5.06 µM, 5.09 µM, 0.73 µM, 5.32 µM and over 134 µM.
For `COc1cccc(NC(C(=O)c2c[nH]c3ccccc23)c2cn3ncccc3n2)c1` (stereo not shown) [CPD-238], in that order: 1.65 µM, 0.54 µM, 0.04 µM, 10.2 µM and over 125 µM.
With `COc1cc(NC(C(=O)c2c[nH]c3cc(F)ccc23)c2ccccc2)cc(OCCO)c1` (stereo not shown) [CPD-316], the half-maximal effective concentration (EC50) in series [1] came to 0.32 µM; in series [2] it was 0.39 µM; in the series with DENV-2 NGC, 0.02 µM; in series [3] it was 4.42 µM. Also, the CC50 at 4 days in the series “in vitro” came out at 29 µM.

(Values after patent US12012411B2, “Viral replication inhibitors” (Katholieke Universiteit Leuven, priority 2011, dated 2024).)
